Key:
Enterococcus faecalis = details: ex-vivo; cited from earlier work
[1] = tested on: Methicillin resistant Staphylococcus aureus (MRSA); details: ex-vivo; cited from earlier work
[2] = tested on: Methicillin sensitive Staphylococcus aureus (MSSA); details: ex-vivo; cited from earlier work
[3] = tested on: glycopeptide intermediate Staphylococcus aureus (GISA); details: ex-vivo; cited from earlier work
[4] = tested on: Staphylococcus agalactiae; details: ex-vivo; cited from earlier work
[5] = Storage stability of ticagrelor 6 mg/ml in HPβCD 40% w/w, phosphate buffer pH 7.5, 40° C./75% RH; type: physicochemical
Method: A Gradient HPLC method was used to analyze impurities in formulations using a YMC-Pack Pro C18 column (100×4.6 mm, S-3 μm 12 nm). Good separation was obtained for all the impurities. Following the experiment described in example 2, a storage stability study at pH 7.5 was conducted First HPβCD was dissolved in a phosphate buffer solution of pH 7.5 prepared separately in water. […] The solution was filtered through a 0.22 micrometer filter and filled in USP Type I amber colored glass vials. The vials were stoppered and stored. All precautions were taken during manufacturing, such as N2 purging and avoiding direct exposure to light.

SMILES: CCCSc1nc(N[C@@H]2C[C@H]2c2ccc(F)c(F)c2)c2nnn([C@@H]3C[C@H](OCCO)[C@@H](O)[C@H]3O)c2n1 [ticagrelor, (1S,2S,3R,5S)-3-{7-[(1R,2S)-2-(3,4-difluorophenyl)cyclopropylamino]5-(propylthio)-3H-(1,2,3)triazolo (4,5-D)pyrimidin-3-yl}-5-(2 hydroxyethoxy) cyclopentane-1,2-diol]
- minimal bactericidal concentration (Enterococcus faecalis): 40 microgram/ml
- minimal bactericidal concentration [1]: 20 microgram/ml
- minimal bactericidal concentration [2]: 20 microgram/ml
- minimal bactericidal concentration [3]: 20 microgram/ml
- minimal bactericidal concentration [4]: 40 microgram/ml
- Acetal impurity ([5]; T = 0, 40° C./75% RH): 0.05%
- Amine impurity ([5]; T = 0, 40° C./75% RH): 0.04%
- Assay ticagrelor ([5]; T = 0, 40° C./75% RH): 104.27%
- Regiomer impurity ([5]; T = 0, 40° C./75% RH): 0.00%
- Sum impurities >0.05 ([5]; T = 0, 40° C./75% RH): 0.11%
- Total impurities ([5]; T = 0, 40° C./75% RH): 0.31%
- Triol impurity ([5]; T = 0, 40° C./75% RH): 0.04%
- Acetal impurity ([5]; T = 4 weeks, 40° C./75% RH): 0.05%
- Amine impurity ([5]; T = 4 weeks, 40° C./75% RH): 0.05%
- Assay ticagrelor ([5]; T = 4 weeks, 40° C./75% RH): 104.47%
- Regiomer impurity ([5]; T = 4 weeks, 40° C./75% RH): 0.01%
- Sum impurities >0.05 ([5]; T = 4 weeks, 40° C./75% RH): 0.14%
- Total impurities ([5]; T = 4 weeks, 40° C./75% RH): 0.32%
- Triol impurity ([5]; T = 4 weeks, 40° C./75% RH): 0.05%
- Acetal impurity ([5]; T = 8 weeks, 40° C./75% RH): 0.05%
- Amine impurity ([5]; T = 8 weeks, 40° C./75% RH): 0.05%
- Assay ticagrelor ([5]; T = 8 weeks, 40° C./75% RH): 102.59%
- Regiomer impurity ([5]; T = 8 weeks, 40° C./75% RH): 0.04%
- Sum impurities >0.05 ([5]; T = 8 weeks, 40° C./75% RH): 0.15%
- Total impurities ([5]; T = 8 weeks, 40° C./75% RH): 0.29%
- Triol impurity ([5]; T = 8 weeks, 40° C./75% RH): 0.05%
- Acetal impurity ([5]; T = 12 weeks, 40° C./75% RH): 0.05%
- Amine impurity ([5]; T = 12 weeks, 40° C./75% RH): 0.05%
- Assay ticagrelor ([5]; T = 12 weeks, 40° C./75% RH): 102.31%
- Regiomer impurity ([5]; T = 12 weeks, 40° C./75% RH): 0.08%
- Sum impurities >0.05 ([5]; T = 12 weeks, 40° C./75% RH): 0.23%
- Total impurities ([5]; T = 12 weeks, 40° C./75% RH): 0.41%
- Triol impurity ([5]; T = 12 weeks, 40° C./75% RH): 0.04%
- Acetal impurity ([5]; T = 24 Weeks, 40° C./75% RH): 0.05%
- Amine impurity ([5]; T = 24 Weeks, 40° C./75% RH): 0.07%
- Assay ticagrelor ([5]; T = 24 Weeks, 40° C./75% RH): 104.39%
- Regiomer impurity ([5]; T = 24 Weeks, 40° C./75% RH): 0.16%
- Sum impurities >0.05 ([5]; T = 24 Weeks, 40° C./75% RH): 0.33%
- Total impurities ([5]; T = 24 Weeks, 40° C./75% RH): 0.35%
- Triol impurity ([5]; T = 24 Weeks, 40° C./75% RH): 0.05%
- storage stability (conclusion) ([5]; accelerated storage conditions of 40° C. and 75% Relative Humidity): good storage stability

— US20260007599A1, “TICAGRELOR IV FORMULATIONS FOR USE IN THE TREATMENT OF GRAM-POSITIVE BACTEREMIA” (Hyloris Developments SA, priority 2023, published 2026)
